# Reference: paper PMC4643908 (2015)
# How the values were obtained:
# [1] = tested on: V. vulnificus add adenine riboswitch (with expression platform segment) (RNA, riboswitch) GGGAACCGAGUAGGUUCGCUUCAUAUAAUCCUAAUGAUAUGGUUUGGGAGUUUCUACCAAGAGCCUUAAACUCUUGAUUAUGAAGUCUGUCGCUUUAUCCGAAAUUUUAUAAAGAGAAGACUCAUGAAUGGGAUCCGAGUAGGAUCCUGAAAAAAACAACAACAAC; test: 1M7 SHAPE mutate-and-map chemical mapping; conditions: 50 mM KCl, 25 mM K3PO4, 10 mM MgCl2; pH 6.5; room temperature; 5 mM adenine; protections in aptamer
# [2] = tested on: Tebowned (RNA, riboswitch) GGACGAUUGAGGAUAUUUAGACAUAGAGAAGGCAAUGGAGAGAGAGCUUUUUAAAGAAACAACAACAACAAC; test: chemical mapping; conditions: mapping pattern changes on FMN
Structure (SMILES),binding [1],binding [2]
Nc1ncnc2[nH]cnc12,yes,
Cc1cc2nc3c(=O)[nH]c(=O)nc-3n(C[C@H](O)[C@H](O)[C@H](O)COP(=O)(O)O)c2cc1C,,yes
